In paper doi:10.1101/2022.04.02.486822v1 (biorxiv, 2022):

Molecular target: T1, EcGhrA (Escherichia coli, UniProt P75913)
T1 sequence (P75913 1-312): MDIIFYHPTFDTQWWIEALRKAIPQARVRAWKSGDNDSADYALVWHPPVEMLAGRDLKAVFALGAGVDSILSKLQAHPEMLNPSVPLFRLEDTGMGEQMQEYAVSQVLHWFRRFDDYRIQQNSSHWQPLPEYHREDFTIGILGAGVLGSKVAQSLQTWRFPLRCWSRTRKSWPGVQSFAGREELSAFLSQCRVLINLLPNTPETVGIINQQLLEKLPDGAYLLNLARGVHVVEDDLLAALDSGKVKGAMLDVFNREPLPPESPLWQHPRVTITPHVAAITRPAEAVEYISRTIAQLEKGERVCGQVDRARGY
Assay: NADPH oxidation at […] nm, substrate inhibition fit
Format: biochemical
Settings: 200 µM NADPH, 50 mM HEPES, pH 7.5, 22 °C

Compound | KI [mM]
O=CC(=O)O [compound 6, glyoxylate] | 1.5 ± 1.1
O=C(O)CC(=O)C(=O)O [compound 7, oxaloacetate] | 52 ± 15
